We go through 41 molecules from patent publication US9988341B2, “Bacterial topoisomerase inhibitors and use thereof” (THE FLORIDA INTERNATIONAL UNIVERSITY BOARD OF TRUSTEES, priority 2016, dated 2018).

The target of assay [1] is E. coli topoisomerase I (Escherichia coli, UniProt P06612). Nature of the assay: Bacterial topoisomerase I relaxation activity inhibition assay (EcTopI). Format: biochemical. To be noted: Table 1; individual compounds tested as crude material; read-out: EcTopI relaxation inhibition (IC50). The procedure: The relaxation activity of bacterial topoisomerase I was assayed in a buffer containing 10 mM Tris-HCl, pH 8.0, 50 mM NaCl, 0.1 mg/mL gelatin, and 0.5 mM MgCl2. One microliter of the compounds dissolved in DMF (dimethylformamide) or solvent alone was mixed with 10 μl of the reaction buffer containing 10 ng of enzyme before the addition of 9 μl of reaction buffer containing 160 ng of supercoiled pBAD/Thio plasmid DNA purified by cesium chloride gradient as substrate. Following incubation at 37° C. for 30 min, the reactions were terminated by the addition of 4 μl of 50% glycerol, 50 mM EDTA, and 0.5% (v/v) bromophenol blue, and analyzed by agarose gel electrophoresis. The gels were stained in ethidium bromide and photographed under UV light.

The target of assay [2] is M. tuberculosis topoisomerase I (Mycobacterium tuberculosis, UniProt P9WG49). In words: biochemical. Particulars: Table 6; read-out: IC50 M. tuberculosis topoisomerase I.
Assay [3] addresses T1, E. coli DNA gyrase (Escherichia coli, UniProt P0AES4+P0AES6).
T1 construct: purchased New England BioLabs
Nature of the assay: DNA gyrase supercoiling inhibition assay. The assay is classed as biochemical. The procedure:
DNA gyrase (obtained from New England BioLabs) supercoiling assays were carried out by mixing the compounds with 2 U of the enzyme in reaction buffer supplied by the manufacturer, followed by the addition of 300 ng of relaxed covalently closed circular DNA was for a final reaction volume of 20 μL. The samples were incubated at 37° C. for 30 minutes before being terminated by the addition of a buffer containing 5% SDS, 0.25% bromophenol blue, and 25% glycerol. The reactions were then analyzed by agarose gel electrophoresis.

Assay [4] addresses T2, Human Topoisomerase IIα (Homo sapiens, UniProt P11388).
T2 construct: purchased TopoGen
Nature of the assay: Human topoisomerase IIα decatenation inhibition assay. Format: biochemical. The procedure: Human Topoisomerase IIα (obtained from TopoGen) assays were carried out by adding the compounds to 180 ng of kinetoplast DNA (kDNA) in the buffer supplied by the manufacturer before the addition of 2 U of the enzyme. The samples were incubated for 15 minutes at 37° C. before the addition of 4 μl of stop buffer containing 5% sarkosyl, 0.0025% bromophenol blue, and 25% glycerol. The reactions were then analyzed by electrophoresis in 1% agarose gels containing 0.5 μg ml^−1 ethidium bromide before being photographed under UV light.

For assay [5], the target named is T3, Human topoisomerase I (Homo sapiens, UniProt P11387).
T3 construct: purchased TopoGen
T3 sequence (P11387 1-765): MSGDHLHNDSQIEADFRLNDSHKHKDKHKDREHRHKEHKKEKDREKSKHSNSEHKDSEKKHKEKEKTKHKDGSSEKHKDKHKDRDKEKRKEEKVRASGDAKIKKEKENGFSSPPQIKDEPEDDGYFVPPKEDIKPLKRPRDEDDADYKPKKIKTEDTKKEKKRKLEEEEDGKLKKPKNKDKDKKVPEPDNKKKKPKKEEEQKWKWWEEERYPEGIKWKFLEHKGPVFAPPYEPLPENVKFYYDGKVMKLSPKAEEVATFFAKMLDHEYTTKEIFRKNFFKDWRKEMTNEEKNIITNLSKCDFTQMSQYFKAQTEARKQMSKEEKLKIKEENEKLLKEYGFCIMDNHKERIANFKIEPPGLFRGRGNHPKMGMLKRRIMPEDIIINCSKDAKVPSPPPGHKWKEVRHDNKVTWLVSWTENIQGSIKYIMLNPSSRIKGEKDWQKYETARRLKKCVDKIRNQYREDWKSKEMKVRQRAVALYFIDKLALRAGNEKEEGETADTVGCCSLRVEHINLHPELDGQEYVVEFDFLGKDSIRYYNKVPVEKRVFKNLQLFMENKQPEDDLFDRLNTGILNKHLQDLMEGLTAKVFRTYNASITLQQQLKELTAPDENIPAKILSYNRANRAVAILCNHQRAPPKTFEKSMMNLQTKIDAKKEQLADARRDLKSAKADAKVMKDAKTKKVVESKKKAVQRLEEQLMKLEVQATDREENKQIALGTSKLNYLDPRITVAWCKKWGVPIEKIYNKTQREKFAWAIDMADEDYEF
Nature of the assay: Human topoisomerase I relaxation inhibition assay. Format: biochemical. The procedure:
Human topoisomerase I (obtained from TopoGen) relaxation assays were carried out with 0.5 U of enzyme in reaction buffer supplied by the manufacturer. The enzyme was mixed with the indicated concentration of compound dissolved before 160 ng of supercoiled pBAD/Thio plasmid DNA was added in the same buffer, for a final volume of 20 μL. Following incubation at 37° C. for 30 minutes, the reactions were terminated with a buffer containing 5% SDS, 0.25% bromophenol blue, and 25% glycerol, and analyzed by agarose gel electrophoresis.

[6] abbreviates: supercoiling, read-out: IC50 E. coli DNA gyrase.

Read-outs that look alike come from different tables or passages of the source.

T2 sequence (P11388 whole entry): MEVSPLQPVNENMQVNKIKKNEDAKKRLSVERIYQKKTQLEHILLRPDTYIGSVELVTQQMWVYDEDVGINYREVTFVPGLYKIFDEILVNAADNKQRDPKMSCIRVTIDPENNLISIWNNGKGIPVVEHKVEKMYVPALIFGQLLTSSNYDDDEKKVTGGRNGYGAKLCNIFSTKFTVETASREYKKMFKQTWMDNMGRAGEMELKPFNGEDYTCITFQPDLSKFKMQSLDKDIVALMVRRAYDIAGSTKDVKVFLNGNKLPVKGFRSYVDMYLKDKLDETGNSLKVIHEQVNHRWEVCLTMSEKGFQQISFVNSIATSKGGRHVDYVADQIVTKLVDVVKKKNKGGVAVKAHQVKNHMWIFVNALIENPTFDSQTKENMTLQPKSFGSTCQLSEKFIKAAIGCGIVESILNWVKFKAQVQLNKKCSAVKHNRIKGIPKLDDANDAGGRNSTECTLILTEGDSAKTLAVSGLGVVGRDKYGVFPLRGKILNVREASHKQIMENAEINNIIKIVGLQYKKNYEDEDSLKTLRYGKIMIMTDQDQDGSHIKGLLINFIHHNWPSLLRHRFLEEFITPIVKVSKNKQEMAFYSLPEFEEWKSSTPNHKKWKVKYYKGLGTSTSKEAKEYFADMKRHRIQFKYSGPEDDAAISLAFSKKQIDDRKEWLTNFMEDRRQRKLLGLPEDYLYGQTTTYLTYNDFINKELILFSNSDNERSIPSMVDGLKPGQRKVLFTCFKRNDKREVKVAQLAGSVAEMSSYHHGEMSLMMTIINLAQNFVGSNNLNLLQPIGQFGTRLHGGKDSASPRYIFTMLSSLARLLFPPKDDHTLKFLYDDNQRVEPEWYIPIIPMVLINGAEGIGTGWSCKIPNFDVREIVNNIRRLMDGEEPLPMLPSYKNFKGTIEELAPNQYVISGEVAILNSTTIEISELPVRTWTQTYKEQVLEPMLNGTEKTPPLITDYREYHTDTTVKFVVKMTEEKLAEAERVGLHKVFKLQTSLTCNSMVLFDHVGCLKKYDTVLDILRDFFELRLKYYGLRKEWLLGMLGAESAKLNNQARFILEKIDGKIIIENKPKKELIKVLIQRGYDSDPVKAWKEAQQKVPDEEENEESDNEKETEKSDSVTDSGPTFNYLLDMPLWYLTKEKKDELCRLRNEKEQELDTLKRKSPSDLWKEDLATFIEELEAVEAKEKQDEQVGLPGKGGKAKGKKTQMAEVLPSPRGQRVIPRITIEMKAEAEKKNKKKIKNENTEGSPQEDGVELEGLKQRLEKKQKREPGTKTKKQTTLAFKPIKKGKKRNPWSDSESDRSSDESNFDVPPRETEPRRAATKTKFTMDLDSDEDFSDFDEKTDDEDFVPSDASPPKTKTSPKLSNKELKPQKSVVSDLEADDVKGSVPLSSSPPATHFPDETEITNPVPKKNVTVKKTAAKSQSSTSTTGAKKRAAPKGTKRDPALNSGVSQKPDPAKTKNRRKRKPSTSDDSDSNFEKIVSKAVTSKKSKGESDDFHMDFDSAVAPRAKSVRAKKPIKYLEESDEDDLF
Chain of M. tuberculosis topoisomerase I (P9WG49 whole entry): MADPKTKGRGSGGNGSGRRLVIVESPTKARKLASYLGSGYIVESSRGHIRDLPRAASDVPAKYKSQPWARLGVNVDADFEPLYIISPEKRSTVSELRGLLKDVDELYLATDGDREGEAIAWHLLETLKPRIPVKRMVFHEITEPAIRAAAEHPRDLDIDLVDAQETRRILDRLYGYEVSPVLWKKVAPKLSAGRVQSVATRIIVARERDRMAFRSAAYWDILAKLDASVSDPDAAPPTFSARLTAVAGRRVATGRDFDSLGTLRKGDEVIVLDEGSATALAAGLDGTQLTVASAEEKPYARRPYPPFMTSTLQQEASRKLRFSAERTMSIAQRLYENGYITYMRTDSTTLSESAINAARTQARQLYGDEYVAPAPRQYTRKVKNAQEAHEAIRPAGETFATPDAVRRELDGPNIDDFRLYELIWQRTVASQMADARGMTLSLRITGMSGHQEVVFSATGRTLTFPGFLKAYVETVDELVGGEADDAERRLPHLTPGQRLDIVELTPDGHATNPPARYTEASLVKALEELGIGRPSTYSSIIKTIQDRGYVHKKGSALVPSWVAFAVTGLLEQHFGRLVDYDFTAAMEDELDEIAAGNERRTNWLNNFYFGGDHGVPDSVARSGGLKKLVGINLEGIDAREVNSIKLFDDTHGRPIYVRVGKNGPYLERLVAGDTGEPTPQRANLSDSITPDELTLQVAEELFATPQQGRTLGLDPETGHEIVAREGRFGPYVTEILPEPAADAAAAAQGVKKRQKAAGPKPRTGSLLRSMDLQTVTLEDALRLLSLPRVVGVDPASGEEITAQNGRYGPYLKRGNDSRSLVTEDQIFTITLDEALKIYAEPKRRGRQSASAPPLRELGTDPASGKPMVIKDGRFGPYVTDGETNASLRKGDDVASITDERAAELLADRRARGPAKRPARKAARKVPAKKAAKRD
T1 sequence (P0AES4 whole entry, one chain of several): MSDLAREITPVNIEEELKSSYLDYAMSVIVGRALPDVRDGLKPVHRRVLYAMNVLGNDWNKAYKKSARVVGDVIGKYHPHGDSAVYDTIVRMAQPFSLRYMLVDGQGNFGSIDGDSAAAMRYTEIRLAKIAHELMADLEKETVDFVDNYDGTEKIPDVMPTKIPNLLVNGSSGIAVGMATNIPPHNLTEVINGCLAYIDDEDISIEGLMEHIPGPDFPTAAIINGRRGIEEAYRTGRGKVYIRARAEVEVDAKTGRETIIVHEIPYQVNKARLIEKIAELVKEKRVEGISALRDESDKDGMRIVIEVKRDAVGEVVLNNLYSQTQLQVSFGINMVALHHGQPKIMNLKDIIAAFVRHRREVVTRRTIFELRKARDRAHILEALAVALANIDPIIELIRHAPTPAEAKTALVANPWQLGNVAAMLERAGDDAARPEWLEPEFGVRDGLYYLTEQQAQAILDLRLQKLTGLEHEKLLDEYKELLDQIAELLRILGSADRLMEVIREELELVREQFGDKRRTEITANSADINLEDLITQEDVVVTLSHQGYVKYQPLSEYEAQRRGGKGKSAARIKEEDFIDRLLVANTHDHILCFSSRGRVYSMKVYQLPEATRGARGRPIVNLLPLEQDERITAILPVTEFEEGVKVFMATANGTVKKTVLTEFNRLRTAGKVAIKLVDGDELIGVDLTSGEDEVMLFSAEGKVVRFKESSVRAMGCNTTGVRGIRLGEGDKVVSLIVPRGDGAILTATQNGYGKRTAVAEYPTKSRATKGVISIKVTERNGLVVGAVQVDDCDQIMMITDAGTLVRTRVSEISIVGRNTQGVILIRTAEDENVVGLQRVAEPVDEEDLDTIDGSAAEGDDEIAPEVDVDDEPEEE
Chain of E. coli topoisomerase I (P06612 whole entry): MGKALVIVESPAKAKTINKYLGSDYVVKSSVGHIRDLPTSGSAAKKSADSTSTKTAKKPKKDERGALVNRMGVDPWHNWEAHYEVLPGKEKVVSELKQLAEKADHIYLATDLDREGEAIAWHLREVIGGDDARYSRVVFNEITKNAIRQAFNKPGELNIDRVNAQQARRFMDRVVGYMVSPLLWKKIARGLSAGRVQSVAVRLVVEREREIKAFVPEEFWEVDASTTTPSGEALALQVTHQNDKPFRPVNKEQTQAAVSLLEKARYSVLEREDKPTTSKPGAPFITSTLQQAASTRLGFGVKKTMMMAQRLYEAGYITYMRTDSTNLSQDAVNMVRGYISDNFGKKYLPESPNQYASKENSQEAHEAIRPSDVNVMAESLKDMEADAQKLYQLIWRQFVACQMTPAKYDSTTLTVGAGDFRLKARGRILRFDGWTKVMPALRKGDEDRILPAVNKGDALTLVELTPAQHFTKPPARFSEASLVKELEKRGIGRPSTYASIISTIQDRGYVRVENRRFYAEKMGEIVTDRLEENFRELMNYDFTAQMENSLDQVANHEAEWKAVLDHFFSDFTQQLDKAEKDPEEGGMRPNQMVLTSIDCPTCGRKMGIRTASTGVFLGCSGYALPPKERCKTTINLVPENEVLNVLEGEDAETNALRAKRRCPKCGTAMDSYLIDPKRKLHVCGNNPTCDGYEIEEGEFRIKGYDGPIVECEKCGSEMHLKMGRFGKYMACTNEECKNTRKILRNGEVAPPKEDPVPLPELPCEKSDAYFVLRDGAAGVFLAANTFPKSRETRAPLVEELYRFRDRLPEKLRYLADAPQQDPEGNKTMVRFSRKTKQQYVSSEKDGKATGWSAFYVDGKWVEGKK

`CNCCCC[C@@H](CN)NC[C@H](CCCCNC)NCCCc1cccc(Br)c1` [Compound 2471-1]: the IC50 in assay [1] came out at 160 µM.
In the case of `CNCCCC[C@@H](CN)NC[C@H](CCCNC(=N)N)NCCCc1cccc(Br)c1` [Compound 2471-4], the concentration for half-maximal inhibition (IC50) in assay [1] came out at 160 µM.
On the same count and under the same terms, to `CNCCCC[C@@H](CN)NC[C@H](CCCNC(=N)N)NCCCc1ccc(O)c(O)c1` [Compound 2471-5] belongs > 160 µM; to `CCC[C@H](CN[C@H](CN)CCCCNC)NCCCc1cccc(Br)c1` [Compound 2471-7], 160 µM; to `CCC[C@H](CN[C@H](CN)CCCCNC)NCCCc1ccc(O)c(O)c1` [Compound 2471-8], > 160 µM.
Still for that read-out and setting: to `CCCC[C@@H](CN[C@H](CN)CCCCNC)NCCCc1cccc(Br)c1` [Compound 2471-10] belongs 160 µM; to `CCCC[C@@H](CN[C@H](CN)CCCCNC)NCCCc1ccc(O)c(O)c1` [Compound 2471-11], > 160 µM.
Same read-out and setting: next, `CNCCCC[C@@H](CN[C@H](CN)CCCN)NCCCc1cccc(Br)c1` [Compound 2471-13]: 160 µM; `CNCCCC[C@@H](CN[C@H](CN)CCCN)NCCCc1ccc(O)c(O)c1` [Compound 2471-14]: > 160 µM.
Turning to `N=C(N)NCCC[C@@H](CN[C@H](CN)CCCN)NCCCc1ccc(O)c(O)c1` [Compound 2471-17], the IC50 in assay [1] is > 160 µM.
For the molecule `CCC[C@H](CN[C@H](CN)CCCN)NCCCc1cccc(Br)c1` [Compound 2471-19], in assay [1], the 50% inhibitory concentration (IC50) was 160 µM.
For `CCC[C@H](CN[C@H](CN)CCCN)NCCCc1ccc(O)c(O)c1` [Compound 2471-20], the IC50 in assay [1] is > 160 µM.
Same read-out and setting: to `CCCC[C@@H](CN[C@H](CN)CCCN)NCCCc1cccc(Br)c1` [Compound 2471-22] belongs 160 µM; to `CCCC[C@@H](CN[C@H](CN)CCCN)NCCCc1ccc(O)c(O)c1` [Compound 2471-23], > 160 µM; to `CNCCCC[C@H](CN)NC[C@H](CCCCNC)NCCCc1cccc(Br)c1` [Compound 2471-25], 160 µM.
The same measure, in the same setting: to `CNCCCC[C@H](CN)NC[C@H](CCCNC(=N)N)NCCCc1ccc(O)c(O)c1` [Compound 2471-29] belongs 120 µM; to `CCC[C@H](CN[C@@H](CN)CCCCNC)NCCCc1cccc(Br)c1` [Compound 2471-31], 160 µM; to `CCC[C@H](CN[C@@H](CN)CCCCNC)NCCCc1ccc(O)c(O)c1` [Compound 2471-32], > 160 µM.
Still for that read-out and setting: to `CCCC[C@@H](CN[C@@H](CN)CCCCNC)NCCCc1cccc(Br)c1` [Compound 2471-34] belongs 160 µM; to `CCCC[C@@H](CN[C@@H](CN)CCCCNC)NCCCc1ccc(O)c(O)c1` [Compound 2471-35], > 160 µM; to `CCCC[C@H](CN[C@H](CN)CC1CCCCC1)NCC1CCC(C(C)(C)C)CC1` (some centres unmarked) [Compound 2471-50], 160 µM.
For `CCCC[C@H](CN[C@H](CN)CC1CCCCC1)NCCCCCC1CCCCC1` [Compound 2471-51], the IC50 in assay [1] stood at 160 µM.
The same measure, in the same setting: next, `CNCCC[C@@H](CN[C@H](CN)CC1CCCCC1)NCCCc1cc(C(F)(F)F)cc(C(F)(F)F)c1` [Compound 2471-52]: 160 µM.
On the same count and under the same terms, to `CNCCC[C@@H](CN[C@H](CN)CC1CCCCC1)NCC1CCC(C(C)(C)C)CC1` (some centres unmarked) [Compound 2471-53] belongs > 160 µM.
Same read-out and setting: to `CNCCC[C@@H](CN[C@H](CN)CC1CCCCC1)NCCCCCC1CCCCC1` [Compound 2471-54] belongs > 160 µM; to `CNCCC[C@H](CN[C@H](CN)CC1CCCCC1)NCCCc1cc(C(F)(F)F)cc(C(F)(F)F)c1` [Compound 2471-55], 160 µM; to `CNCCC[C@H](CN[C@H](CN)CC1CCCCC1)NCC1CCC(C(C)(C)C)CC1` (some centres unmarked) [Compound 2471-56], 160 µM.
`CNCCC[C@H](CN[C@H](CN)CC1CCCCC1)NCCCCCC1CCCCC1` [Compound 2471-57]: in assay [1], the half-inhibitory concentration (IC50) is 160 µM.
Same read-out and setting: next, `CCCC[C@H](CN[C@@H](CN)CC1CCCCC1)NCC1CCC(C(C)(C)C)CC1` (some centres unmarked) [Compound 2471-62]: 160 µM.
Same read-out and setting: next, `CCCC[C@H](CN[C@@H](CN)CC1CCCCC1)NCCCCCC1CCCCC1` [Compound 2471-63]: 160 µM; `CNCCC[C@@H](CN[C@@H](CN)CC1CCCCC1)NCCCc1cc(C(F)(F)F)cc(C(F)(F)F)c1` [Compound 2471-64]: 160 µM; `CNCCC[C@@H](CN[C@@H](CN)CC1CCCCC1)NCC1CCC(C(C)(C)C)CC1` (some centres unmarked) [Compound 2471-65]: 160 µM.
For `CNCCC[C@@H](CN[C@@H](CN)CC1CCCCC1)NCCCCCC1CCCCC1` [Compound 2471-66], the half-inhibitory concentration (IC50) in assay [1] stood at 160 µM.
`CNCCC[C@H](CN[C@@H](CN)CC1CCCCC1)NCCCc1cc(C(F)(F)F)cc(C(F)(F)F)c1` [Compound 2471-67]: in assay [1], the concentration for half-maximal inhibition (IC50) is 160 µM.
On to `CNCCC[C@H](CN[C@@H](CN)CC1CCCCC1)NCC1CCC(C(C)(C)C)CC1` (some centres unmarked) [Compound 2471-68], for which, in assay [1], the IC50 was 160 µM.
The same measure, in the same setting: to `CC(C)(C)C1CCC(CN[C@H](CN[C@@H](CN)CC2CCCCC2)Cc2ccc(F)cc2)CC1` (some centres unmarked) [Compound 2471-71] belongs 40 µM.
With `CCC[C@H](CN)NC[C@@H](CCCNC(=N)N)NCCc1cccc2ccccc12` [Compound 2580-3], the half-maximal inhibitory concentration (IC50) was 6 µM in assay [2], > 80 µM in assay [3] (setting [6]), > 80 µM in assay [4] and > 80 µM in assay [5].
For the molecule `CNCCC[C@H](CN)NC[C@@H](CCCNC(=N)N)NCCc1cccc2ccccc12` [Compound 2580-15], the half-inhibitory concentration (IC50) was 0.73 µM in assay [2], > 90 µM in assay [3] (setting [6]), > 90 µM in assay [4] and > 90 µM in assay [5].
`CCCC[C@H](CN[C@@H](CN)CCCNC)NCCc1cccc2ccccc12` [Compound 2580-18]: the half-maximal inhibitory concentration (IC50) is 3.2 µM in assay [2], > 100 µM in assay [3] (setting [6]), > 100 µM in assay [4] and > 100 µM in assay [5].
As to `CNCCC[C@H](CN)NC[C@@H](Cc1ccc2ccccc2c1)NCCc1cccc2ccccc12` [Compound 2580-24], the half-inhibitory concentration (IC50) in assay [2] was 8 µM; in assay [3], > 85 µM; in assay [4], > 85 µM; in assay [5], > 85 µM.
As to `CNCCC[C@@H](CN[C@@H](CN)Cc1ccc2ccccc2c1)NCCc1cccc2ccccc12` [Compound 2580-33], the concentration for half-maximal inhibition (IC50) was 8 µM in assay [2], > 85 µM in assay [3], > 85 µM in assay [4] and > 85 µM in assay [5].
